Experimental findings from the OligoGym collection are described below.

After the bases stand the sugars from the 5' end (letter, count) and the backbone: PS all phosphorothioate, else s phosphorothioate and o phosphodiester by linkage. Methylation of C is not given here. e = 2'-O-(2-methoxyethyl) (MOE); k = constrained ethyl (cEt); d = 2'-deoxy (DNA); m = 2'-O-methyl

The series addresses HSD17B13. The settings on record: ASO, HepaRG.

Where the note is “1 µM”, AGATAAAGCTGCCTGC (sugars k3 d10 k3, PS) showed a target mRNA inhibition of 48%.

In turn, AACCTTGAATGAGTGG (sugars k3 d10 k3, PS) showed a target mRNA inhibition (1 µM) of 50%.

Turning to TTAATTTTCGGGTTCT (sugars k3 d10 k3, PS), the target mRNA inhibition (1 µM) was 31%.

Sequence AACCAATTATATGAGG (sugars k3 d10 k3, PS) returned a target mRNA inhibition (1 µM) of 38%.

The sequence “CACCGTTTTGGGCTAA (sugars kkdddddddddkekek, PS)” registered a target mRNA inhibition (1 µM) of 42%.

As for GAGTTGCACCGTTTTG (sugars k3 d10 k3, PS), for the setting “1 µM”, the target mRNA inhibition was 48%.

As for “ATGGCTACAGATTGGA (sugars kkdddddddddkekek, PS)”, the target mRNA inhibition (1 µM) turned out to be 57%.

Where the note is “1 µM”, CTCTAAGTTAGCCCCC (sugars k3 d10 k3, PS) yielded a target mRNA inhibition of 38%.

Regarding AAAGATCTGGCCAGTT (sugars k3 d10 k3, PS), for the setting “1 µM”, the target mRNA inhibition came to 3%.

The sequence TACTTACCAATATGGG (sugars k3 d10 k3, PS) gave a target mRNA inhibition (1 µM) of 13%.

As to ATTAATCATGGGACAG (sugars k3 d10 k3, PS), where the note is “1 µM”, the target mRNA inhibition was 20%.

AGTAGTAATTCTAAAC (sugars k3 d10 k3, PS) had a target mRNA inhibition (1 µM) of 23%.

In the case of GACCAGGGAATTTATC (sugars k3 d10 k3, PS), the target mRNA inhibition (1 µM) turned out to be 41%.

Under “1 µM”, GCTTTGAAGACAATAC (sugars k3 d10 k3, PS) registered a target mRNA inhibition of 42%.

Under “1 µM”, AGGAAATATAGAGGGT (sugars k3 d10 k3, PS) showed a target mRNA inhibition of 54%.

Regarding CTTAGCTGTGCACTCA (sugars k3 d10 k3, PS), the target mRNA inhibition (1 µM) was 60%.

Where the note is “1 µM”, ACACTAATGAATCATG (sugars k3 d10 k3, PS) returned a target mRNA inhibition of 7%.

Sequence “TGCTACTTGAACAGTC (sugars kkdddddddddkekek, PS)” had a target mRNA inhibition (1 µM) of 64%.

Sequence “CTGTGTTAGCTTTAAT (sugars k3 d9 k3 e1, PS)” returned a target mRNA inhibition (1 µM) of 50%.

For the sequence “ACTTGATCTCTTAGCT (sugars kkdddddddddkekek, PS)”, for the setting “1 µM”, the target mRNA inhibition worked out at 62%.

Sequence “TACAGATTGGAATGCT (sugars kkdddddddddkekek, PS)” had a target mRNA inhibition (1 µM) of 35%.

As to “TTGGTAAGTATTCCAT (sugars k3 d9 k3 e1, PS)”, where the note is “1 µM”, the target mRNA inhibition amounted to 28%.

In the case of GAAACCTTCATGCTAG (sugars k3 d10 k3, PS), the target mRNA inhibition (1 µM) stood at 31%.

As to GAATTTTTGAGGTTGG (sugars k3 d10 k3, PS), the target mRNA inhibition stood at 17% (0.02 µM); 26% (0.078 µM); 62% (0.313 µM); 77% (1 µM); 92% (1.25 µM); 91% (5 µM).

In the case of CAGGTAATTAATCTTG (sugars k3 d10 k3, PS), where the note is “1 µM”, the target mRNA inhibition amounted to 54%.

GGATATGTCATCTAAA (sugars k3 d10 k3, PS) yielded a target mRNA inhibition (1 µM) of 68%.

In the case of “GCTACTTGAACAGTCT (sugars kkdddddddddkekek, PS)”, the target mRNA inhibition (1 µM) was 64%.

With GCACCGTTTTGGGCTA (sugars k3 d10 k3, PS), the target mRNA inhibition stood at 36% (0.02 µM); 38% (0.078 µM); 61% (0.313 µM); 74% (1 µM); 80% (1.25 µM); 88% (5 µM).

Turning to TTCCCAACGCAACAGT (sugars k3 d10 k3, PS), the target mRNA inhibition (1 µM) is 60%.

The sequence ACAGACTGTTGAGCTC (sugars k3 d10 k3, PS) showed a target mRNA inhibition (1 µM) of 53%.

For the sequence CATAGACATGTGTTCA (sugars k3 d10 k3, PS), for the setting “1 µM”, the target mRNA inhibition worked out at 52%.

Sequence ATTGATACACCAATGC (sugars k3 d10 k3, PS) registered a target mRNA inhibition (1 µM) of 66%.

Sequence “TAATAGCCAGTACAGT (sugars k3 d9 k3 e1, PS)” yielded a target mRNA inhibition (1 µM) of 64%.

Sequence TATAACATGGCTGGCA (sugars k3 d10 k3, PS) returned a target mRNA inhibition (1 µM) of 33%.

The sequence AAAGTTAATAGGACTA (sugars k3 d10 k3, PS) gave a target mRNA inhibition (1 µM) of 12%.

Regarding “GTAACGGTGATCAAAT (sugars k3 d9 k3 e1, PS)”, the target mRNA inhibition (1 µM) was 32%.

TCCTTATACTGAAGGC (sugars k3 d10 k3, PS) registered a target mRNA inhibition (1 µM) of 22%.

As to ATTAAGCATTGTTAGC (sugars k3 d10 k3, PS), the target mRNA inhibition (1 µM) stood at 0%.

As for GATGGTAAGTCAAATA (sugars k3 d10 k3, PS), the target mRNA inhibition runs as follows: (0.02 µM) 22%; (0.078 µM) 34%; (0.313 µM) 47%; (1 µM) 85%; (1.25 µM) 74%; (5 µM) 90%.

“CTAAAATTGTCTAAAC (sugars k3 d1 m1 d8 k3, PS)” returned a target mRNA inhibition (1 µM) of 13%.

In the case of GCTAGACAATTGCAAA (sugars k3 d10 k3, PS), where the note is “1 µM”, the target mRNA inhibition turned out to be 77%.

Where the note is “1 µM”, AAGCTTATCGAGTTTA (sugars k3 d10 k3, PS) gave a target mRNA inhibition of 26%.

For the sequence CTTTCATAGGGAGACC (sugars k3 d10 k3, PS), the target mRNA inhibition worked out at 20% (0.02 µM); 2% (0.078 µM); 54% (0.313 µM); 73% (1 µM); 75% (1.25 µM); 86% (5 µM).

Consider GGAGTACTTCACAATT (sugars k3 d10 k3, PS), for which the target mRNA inhibition is, setting by setting: (0.02 µM) 20%; (0.078 µM) 25%; (0.313 µM) 42%; (1 µM) 79%; (1.25 µM) 75%; (5 µM) 87%.

With TTAGAGTGCTTAGTTC (sugars k3 d10 k3, PS), where the note is “1 µM”, the target mRNA inhibition was found to be 58%.

As to CATAAGAGATGAGTAG (sugars k3 d10 k3, PS), the target mRNA inhibition (1 µM) turned out to be 44%.

For GCTCTATTGGGCCAGG (sugars k3 d10 k3, PS), where the note is “1 µM”, the target mRNA inhibition came to 47%.

ATTGTAATCTTGAGGC (sugars k3 d10 k3, PS): the target mRNA inhibition (1 µM) is 39%.

Under “1 µM”, CTAAAGCAGGCTACTT (sugars k3 d10 k3, PS) returned a target mRNA inhibition of 32%.

For TATTCTCTTGACAATG (sugars k3 d10 k3, PS), the target mRNA inhibition (1 µM) was found to be 47%.

ATTTTTGGTGAACCCA (sugars k3 d10 k3, PS) gave a target mRNA inhibition (1 µM) of 8%.

“CGTTUGACTGCTGCTA (sugars k3 d1 m1 d8 k3, PS)”: where the note is “1 µM”, the target mRNA inhibition is 54%.

In the case of GAATCAAATAGATCCT (sugars k3 d10 k3, PS), for the setting “1 µM”, the target mRNA inhibition came to 46%.

Sequence GACATAACTTCATAGT (sugars k3 d10 k3, PS) had a target mRNA inhibition (1 µM) of 39%.

Sequence “GACTGCTGCTAGTGCC (sugars kkdddddddddkekek, PS)” had a target mRNA inhibition (1 µM) of 35%.

For the sequence “CTTGATCTCTTAGCTG (sugars k3 d1 m1 d8 k3, PS)”, the target mRNA inhibition (1 µM) is 32%.

Where the note is “1 µM”, AGAAGATATTATCAGC (sugars k3 d10 k3, PS) showed a target mRNA inhibition of 64%.

For the setting “1 µM”, TATATACCTGTTGCCT (sugars k3 d10 k3, PS) yielded a target mRNA inhibition of 55%.

Regarding GTCTCCAATACAGGCC (sugars k3 d10 k3, PS), for the setting “1 µM”, the target mRNA inhibition was 47%.

ATTAAGTACTGTGAGA (sugars k3 d10 k3, PS) displayed a target mRNA inhibition (1 µM) of 1%.

In turn, CCTTAACAAACCTCCA (sugars k3 d10 k3, PS) came in with a target mRNA inhibition (1 µM) of 27%.

TTAGTACCAAGACACT (sugars k3 d10 k3, PS) showed a target mRNA inhibition (1 µM) of 41%.

Turning to ATGTCAGACCTCTGTG (sugars k3 d10 k3, PS), where the note is “1 µM”, the target mRNA inhibition is 19%.

The sequence CAAAACCTTTGTTGCC (sugars k3 d10 k3, PS) registered a target mRNA inhibition (1 µM) of 14%.

Sequence TCACAAAGTCCCTGAC (sugars k3 d10 k3, PS) came in with a target mRNA inhibition (1 µM) of 11%.

In turn, ATCACAAGTAAGGTAA (sugars k3 d10 k3, PS) had a target mRNA inhibition (1 µM) of 62%.

In turn, TTTAGGGCAAACCTTG (sugars k3 d10 k3, PS) came in with a target mRNA inhibition (1 µM) of 67%.

As to TAAGAGGCATGAAAGG (sugars k3 d10 k3, PS), the target mRNA inhibition (1 µM) was determined as 52%.

On to GAGATTTGAAGGTTAG (sugars k3 d10 k3, PS), for which the target mRNA inhibition is, setting by setting: (0.02 µM) 0%; (0.078 µM) 26%; (0.313 µM) 54%; (1 µM) 82%; (1.25 µM) 77%; (5 µM) 92%.

As for ACTCCAAGTAGGAGTA (sugars k3 d10 k3, PS), the target mRNA inhibition (1 µM) came out at 0%.

Where the note is “1 µM”, “TAGTAATCACAAGTAA (sugars kkdddddddddkekek, PS)” showed a target mRNA inhibition of 55%.

In turn, TGTACAAATTTATGCC (sugars k3 d10 k3, PS) gave a target mRNA inhibition (1 µM) of 67%.

In turn, GATACAAATTTATTGG (sugars k3 d10 k3, PS) had a target mRNA inhibition (1 µM) of 33%.

For the sequence ACTTACCAATATGGGA (sugars k3 d10 k3, PS), the target mRNA inhibition (1 µM) was 0%.

With CTAAGTTAGCCCCCAG (sugars k3 d10 k3, PS), the target mRNA inhibition (1 µM) worked out at 15%.

In turn, CCGCGCTTATTAATAT (sugars k3 d10 k3, PS) came in with a target mRNA inhibition (1 µM) of 21%.

In turn, “TAGTCTTGATGTAGTG (sugars k3 d9 k3 e1, PS)” came in with a target mRNA inhibition (1 µM) of 61%.

The sequence “CAGAGACATGAGGTTT (sugars k3 d1 m1 d8 k3, PS)” yielded a target mRNA inhibition (1 µM) of 61%.

Consider CCATTATCCTTACTCC (sugars k3 d10 k3, PS), for which, under “1 µM”, the target mRNA inhibition was found to be 27%.

Consider CATTTAGCAGCTTGGA (sugars k3 d10 k3, PS), for which the target mRNA inhibition runs as follows: (0.02 µM) 0%; (0.078 µM) 0%; (0.313 µM) 54%; (1 µM) 88%; (1.25 µM) 75%; (5 µM) 86%.

Sequence “TCCCAACCAAACTTCC (sugars kkdddddddddkekek, PS)” registered a target mRNA inhibition (1 µM) of 27%.
